Assay results reported in patent US6632981B1, “DNA sequences encoding polypeptides having beta-1,3-glucanase activity” (Novartis Finance Corporation, priority 1988, dated 2003).

Assays:
chimeric PR-1a/GUS gene [1] = assay: Chemical induction of chimeric PR-1a/GUS gene in transgenic tobacco plants, β-glucuronidase assay of leaf extracts; assay type: in vivo, Nicotiana tabacum
Description: A. Gene expression is induced in plants obtained according to previously described procedures by applying a fine spray of a solution of 0.1 to 50 mM salicylic acid which has been adjusted to a pH between 6.0 and 8.0 with NaOH, to the leaves using a plant mister.
The plants are allowed to continue to grow for two days and are then harvested, frozen in liquid nitrogen and stored at −80° C. until they are assayed as described in Example 65 and/or Example 66.
B. Alternatively, the following solutions are used for induction:
(§1) (3) Methyl benzo-1,2,3-thiadiazole-7-carboxylate. The solution is made by resuspending a wettable powder containing the chemical in sterile water for several minutes at a concentration of 1 mg/ml. Insoluble solid is removed from the solution by filter sterilizing.
Frozen leaf tissue is ground in a mortar with a pestle in the presence of liquid nitrogen to produce a fine powder. Leaf extracts are prepared by mixing a given weight (g) with an equal volume (ml) of GUS extraction buffer (50 mM sodium phosphate buffer pH 7.0, 0.1% Triton-X 100, 0.1% sarkosyl, 10 mM β-mercaptoethanol) as described by Jefferson, R. A. et al., Proc. Natl. Acad. Sci. USA 83: 8447-8451 (1986).
(§2) The reactions are carried out in the wells of ELISA plates by mixing 5-25 l extract with 120-100 l GUS assay buffer (50 mM sodium phosphate buffer pH 7.0, 0.1% Triton X-100, 10 mM β-mercaptoethanol) containing 4-methyl umbelliferyl glucuronide (MU) at a final concentration of 2 mM in a total volume of 125 l. The plate is incubated at 37° C. for 1-5 hours and the reaction is stopped by the addition of 150 l 3 M Na2CO3. The concentration of fluorescent indicator released is determined by reading the plate on a Flow Labs Fluoroskan II ELISA plate reader.

chimeric PR-1a/GUS gene [2] = assay: GUS induction in transformed carrot callus; assay type: cell-based; conditions: carrot callus transformed by pCIB271; 50 mM sodium salicylate or 250 g/l methyl ester spray; 21 hours; H2O spray 5.2
Description: To surface sterilize the carrots they are peeled and then soaked 20 minutes in a 10% solution of chlorox. The carrots are rinsed with sterile water, sliced into 5 mm pieces and placed basal side up onto water agar. 20-50 l of bacteria are then applied to the upper surface of the discs. After 7 days the discs are transferred to 0.7% agar containing MS salts, 3% sucrose, 0.1 mg/l 2,4-D, […] kanamycin, 100 µg/ml carbenicillin, and 100 µg/ml mefoxin. Callus forming around the cambial ring is excised and placed on 0.7% MS agar supplemented with 3% sucrose, 0.1 mg/l 2,4-D, […] kanamycin, 100 µg/ml carbenicillin, and 100 µg/ml mefoxin. After the callus has been grown it is cut into small pieces and randomized onto four plates of the same media. […]
as §2, with “The plate is incubated at 37° C. for 1-5 hours and the reaction is stopped by the addition of 150 l 3 M Na2CO3.” left out

chimeric PR-1a/GUS gene [3] = assay: GUS induction in transformed tobacco callus; assay type: cell-based, Nicotiana tabacum
Description: Agrobacterium strains containing the appropriate vectors are used to transform callus forming from the leaf disks (Example 112). Callus forming on kanamycin-containing MSBN selection medium is maintained on a callus growth medium comprised of MS major, minor salts and Fe-EDTA (Gibco #500-1117; 4.3 g/l), MS vitamins, 100 mg/l myo-inositol, 20 g/l sucrose, 2 mg/l naphthaleneacetic acid and 0.3 mg/l kinetin.
The callus can be used to regenerate transgenic plants by transferring callus pieces to MSBN medium and following methods described in Examples 111 and 112. The callus is also used to measure gene induction following application of inducing chemicals and to screen for gene inducing chemicals.
A. Callus obtained according to previously described procedures is assayed for chemical induction by applying with a sterile paint brush or a plant mister a filter sterilized solution of 0.1 to 50 mM salicylic acid which has been adjusted to a pH between 6.0 and 8.0 by the addition of NaOH. […]
as §1
Frozen leaf tissue is ground in a mortar with a pestle in the presence of liquid nitrogen to produce a fine powder. […]
as §2, with “The plate is incubated at 37° C. for 1-5 hours and the reaction is stopped by the addition of 150 l 3 M Na2CO3.” left out, “reader. […]” for “reader.”

[4] = tobacco plant Alu 1 (CIB272), water 5.6, buffer 20.5
[5] = tobacco plant Alu 2 (CIB272), water 2.0, buffer 8.9
[6] = tobacco plant Alu 3 (CIB272), water 0.1, buffer 2.0
[7] = tobacco plant Alu 4 (CIB272), water 2.1, buffer 6.1
[8] = tobacco plant Alu 5 (CIB272), water 0.6, buffer 0.5
[9] = tobacco plant Alu 6 (CIB272), water 0.8, buffer 3.1
[10] = tobacco plant Alu 7 (CIB272), water 1.7, buffer 21.7
[11] = tobacco plant Alu 8 (CIB272), water 0.6, buffer 0.6
[12] = tobacco plant Alu 9 (CIB272), water 0.9, buffer 0.3
[13] = tobacco plant Alu 10 (CIB272), water 4.0, buffer 8.1
[14] = tobacco plant Alu 11 (CIB272), water 1.6, buffer 2.2
[15] = tobacco plant Alu 12 (CIB272), water 0.7, buffer 2.3
[16] = tobacco plant Alu 13 (CIB272), water 0.1, buffer 1.9
[17] = tobacco plant H 1 (CIB271), water 5.39, buffer 20.1
[18] = tobacco plant H 3 (CIB271), water 0.21, buffer 1.66
[19] = tobacco plant H 4 (CIB271), water 8.39, buffer 2.28
[20] = tobacco plant H 6 (CIB271), water 0.10, buffer 0.09
[21] = tobacco plant H 9 (CIB271), water 0.23, buffer 0.5
[22] = tobacco plant Hae 1 (CIB273), water 0.6, buffer 1.7
[23] = tobacco plant Hae 2 (CIB273), water 2.3, buffer 0.4
[24] = tobacco plant Hae 3 (CIB273), water 1.7, buffer 3.0
[25] = tobacco plant Hae 4 (CIB273), water 2.0, buffer 1.7
[26] = tobacco plant Hae 5 (CIB273), water 18.1, buffer 36.6
[27] = tobacco plant Hae 8 (CIB273), water 0.4, buffer 0.6
[28] = tobacco plant Hae 9 (CIB273), water 2.6, buffer 12.5
[29] = tobacco plant Hae 10 (CIB273), water 1.6, buffer 13.5
[30] = tobacco plant Hae 11 (CIB273), water 2.6, buffer 3.9
[31] = tobacco plant Hae 12 (CIB273), water 0.2, buffer 0.6
[32] = tobacco plant Hae 13 (CIB273), water 0.01, buffer nd
[33] = tobacco plant Hae 14 (CIB273), water 0.1, buffer 0.1
[34] = tobacco plant Hae 15 (CIB273), water 0.1, buffer 3.4
[35] = tobacco plant Hae 16 (CIB273), water 0.1, buffer 0.8

SMILES | Specific Activity nKat MU/mg protein (chimeric PR-1a/GUS gene [1]; [4]) | Specific Activity nKat MU/mg protein (chimeric PR-1a/GUS gene [1]; [5]) | Specific Activity nKat MU/mg protein (chimeric PR-1a/GUS gene [1]; [6]) | Specific Activity nKat MU/mg protein (chimeric PR-1a/GUS gene [1]; [7]) | Specific Activity nKat MU/mg protein (chimeric PR-1a/GUS gene [1]; [8]) | Specific Activity nKat MU/mg protein (chimeric PR-1a/GUS gene [1]; [9]) | Specific Activity nKat MU/mg protein (chimeric PR-1a/GUS gene [1]; [10]) | Specific Activity nKat MU/mg protein (chimeric PR-1a/GUS gene [1]; [11]) | Specific Activity nKat MU/mg protein (chimeric PR-1a/GUS gene [1]; [12]) | Specific Activity nKat MU/mg protein (chimeric PR-1a/GUS gene [1]; [13]) | Specific Activity nKat MU/mg protein (chimeric PR-1a/GUS gene [1]; [14]) | Specific Activity nKat MU/mg protein (chimeric PR-1a/GUS gene [1]; [15]) | Specific Activity nKat MU/mg protein (chimeric PR-1a/GUS gene [1]; [16]) | Specific Activity nKat MU/mg protein (chimeric PR-1a/GUS gene [1]; [17]) | Specific Activity nKat MU/mg protein (chimeric PR-1a/GUS gene [1]; [18]) | Specific Activity nKat MU/mg protein (chimeric PR-1a/GUS gene [1]; [19]) | Specific Activity nKat MU/mg protein (chimeric PR-1a/GUS gene [1]; [20]) | Specific Activity nKat MU/mg protein (chimeric PR-1a/GUS gene [1]; [21]) | Specific Activity nKat MU/mg protein (chimeric PR-1a/GUS gene [1]; [22]) | Specific Activity nKat MU/mg protein (chimeric PR-1a/GUS gene [1]; [23]) | other results
COC(=O)c1cccc2nnsc12 [Methyl benzo-1,2,3-thiadiazole-7-carboxylate] | 206.9 nKat MU/mg protein | 83.2 nKat MU/mg protein | 2.0 ± .9 nKat MU/mg protein | 7.1 ± 2.6 nKat MU/mg protein | 1.2 ± .6 nKat MU/mg protein | 67.0 nKat MU/mg protein | 29.1 nKat MU/mg protein | 0.4 nKat MU/mg protein | 0.4 nKat MU/mg protein | 52.0 nKat MU/mg protein | 2.8 ± 1.3 nKat MU/mg protein | 73.4 nKat MU/mg protein | 13.2 nKat MU/mg protein | 13.5 ± 0.8 nKat MU/mg protein | 11.95 ± 0.85 nKat MU/mg protein | 18.52 ± 1.07 nKat MU/mg protein | 2.58 ± .01 nKat MU/mg protein | 9.1 nKat MU/mg protein | 2.6 nKat MU/mg protein | 11.8 nKat MU/mg protein | Specific Activity nKat MU/mg protein (chimeric PR-1a/GUS gene [1]; [24]): 11.2 nKat MU/mg protein; Specific Activity nKat MU/mg protein (chimeric PR-1a/GUS gene [1]; [25]): 10.8 nKat MU/mg protein; Specific Activity nKat MU/mg protein (chimeric PR-1a/GUS gene [1]; [26]): 132.5 nKat MU/mg protein; Specific Activity nKat MU/mg protein (chimeric PR-1a/GUS gene [1]; [27]): 28.9 nKat MU/mg protein; Specific Activity nKat MU/mg protein (chimeric PR-1a/GUS gene [1]; [28]): 129.7 nKat MU/mg protein; Specific Activity nKat MU/mg protein (chimeric PR-1a/GUS gene [1]; [29]): 98.2 nKat MU/mg protein; Specific Activity nKat MU/mg protein (chimeric PR-1a/GUS gene [1]; [30]): 58.5 nKat MU/mg protein; Specific Activity nKat MU/mg protein (chimeric PR-1a/GUS gene [1]; [31]): 5.8 nKat MU/mg protein; Specific Activity nKat MU/mg protein (chimeric PR-1a/GUS gene [1]; [32]): 0.1 nKat MU/mg protein; Specific Activity nKat MU/mg protein (chimeric PR-1a/GUS gene [1]; [33]): 8.6 nKat MU/mg protein; Specific Activity nKat MU/mg protein (chimeric PR-1a/GUS gene [1]; [34]): 7.2 nKat MU/mg protein; Specific Activity nKat MU/mg protein (chimeric PR-1a/GUS gene [1]; [35]): 4.3 nKat MU/mg protein; GUS activities (chimeric PR-1a/GUS gene [2]): 22.1 pKat MU/mg protein; GUS activities (chimeric PR-1a/GUS gene [3]; tobacco callus transformed with CIB271 (different experiment), 250 g/l spray, 21 hours, H2O spray 2.8): 13.7 nKat MU/mg protein; GUS activities (chimeric PR-1a/GUS gene [3]; tobacco callus transformed with CIB273, 250 g/l spray, 21 hours, H2O spray 0.46): 31.2 nKat MU/mg protein
O=C(O)c1ccccc1O [Salicylic acid, salicylic acid] | 20.0 nKat MU/mg protein | 6.6 nKat MU/mg protein | 2.8 ± .9 nKat MU/mg protein | 43.0 ± 19 nKat MU/mg protein | 4.4 ± 2.3 nKat MU/mg protein | 28.8 nKat MU/mg protein | 38.7 nKat MU/mg protein | 0.4 nKat MU/mg protein | 0.6 nKat MU/mg protein | 39.2 nKat MU/mg protein | 1.9 ± .9 nKat MU/mg protein | 57.1 ± 22 nKat MU/mg protein | 19.1 nKat MU/mg protein | 13.9 ± 1.2 nKat MU/mg protein | 6.92 ± 0.88 nKat MU/mg protein | 27.5 ± 0.7 nKat MU/mg protein | 4.08 ± 0.58 nKat MU/mg protein | 10.8 nKat MU/mg protein | 1.6 nKat MU/mg protein | 8.8 nKat MU/mg protein | Specific Activity nKat MU/mg protein (chimeric PR-1a/GUS gene [1]; [24]): 11.1 nKat MU/mg protein; Specific Activity nKat MU/mg protein (chimeric PR-1a/GUS gene [1]; [25]): 8.1 nKat MU/mg protein; Specific Activity nKat MU/mg protein (chimeric PR-1a/GUS gene [1]; [26]): 59.4 nKat MU/mg protein; Specific Activity nKat MU/mg protein (chimeric PR-1a/GUS gene [1]; [27]): 30.6 nKat MU/mg protein; Specific Activity nKat MU/mg protein (chimeric PR-1a/GUS gene [1]; [28]): 63.9 nKat MU/mg protein; Specific Activity nKat MU/mg protein (chimeric PR-1a/GUS gene [1]; [29]): 70.5 nKat MU/mg protein; Specific Activity nKat MU/mg protein (chimeric PR-1a/GUS gene [1]; [30]): 81.8 nKat MU/mg protein; Specific Activity nKat MU/mg protein (chimeric PR-1a/GUS gene [1]; [31]): 2.5 nKat MU/mg protein; Specific Activity nKat MU/mg protein (chimeric PR-1a/GUS gene [1]; [32]): 0.7 nKat MU/mg protein; Specific Activity nKat MU/mg protein (chimeric PR-1a/GUS gene [1]; [33]): 1.8 nKat MU/mg protein; Specific Activity nKat MU/mg protein (chimeric PR-1a/GUS gene [1]; [34]): 6.4 nKat MU/mg protein; Specific Activity nKat MU/mg protein (chimeric PR-1a/GUS gene [1]; [35]): 2.3 nKat MU/mg protein; GUS activities (chimeric PR-1a/GUS gene [2]): 11.6 pKat MU/mg protein; GUS activities (chimeric PR-1a/GUS gene [3]; tobacco callus transformed with CIB271, 50 mM spray, harvested 21 hours after treatment, H2O spray 1.8): 3.8 nKat MU/mg protein
